Measured values: US12596108B2, “Automated lipid exchange-mass spectrometry systems and methods” (ARIZONA BOARD OF REGENTS ON BEHALF OF THE UNIVERSITY OF …, priority 2020, dated 2026)

Molecular target: T1, AmtB, an E. coli ammonia channel (Escherichia coli, UniProt P69681)
T1 construct: HIS (polyhistidine) (N, cleaved yes); MBP (N, cleaved yes); TEV site (N, cleaved yes); made in house; host or cells: E. coli
Assay: Lipid exchange-mass spectrometry (LX-MS) between AmtB nanodiscs and tagged empty nanodiscs
Format: binding
Conditions: for optimal ratio for AmtB POPC/POPG (isolipid point) / lipid preference of AmtB (in words): LX-MS; for lipid preference of AmtB (in words) / isolipid point (mole fraction where Xp−Xt=0): POPC/POPG nanodiscs; for isolipid point (mole fraction where Xp−Xt=0): exchange at room temperature (21-23° C.) over 2.8 days, sigmoidal fit of Xt versus Xp−Xt
Experimental: AmtB, an E. coli ammonia channel, was incorporated into untagged nanodiscs with 50/50 1-palmitoyl-2-oleoyl-sn-glycero-3-phosphocholine (POPC)/1-palmitoyl-2-oleoyl-sn-glycero-3-phospho-(1′-racglycerol) (POPG). Polyhistidine-tagged empty nanodiscs without AmtB were also prepared at various POPC/POPG ratios ranging from 0 to 100% POPC. In one embodiment, the ratios were 0%, 20%, 40%, 50%, 60%, 80%, and 100% POPC Tagged empty nanodiscs were mixed with untagged AmtB nanodiscs, and the mixture was allowed to exchange at room temperature (21-23° C.) over 2.8 days. After exchange, internal standards containing PC and PG lipids with different tail lengths were added, and the total lipid mole fraction of POPC, Xt, was measured (tagged and untagged) by direct infusion MS. Then, the tagged empty nanodiscs were removed by passing the mixture over immobilized metal affinity chromatography (IMAC) beads, and the untagged AmtB nanodiscs were measured alone to determine the lipid mole fraction in the membrane protein nanodiscs, Xp. Preliminary experiments confirmed that the exchange was within experimental error (typically 2-4% absolute mole fraction) by 2.8 days, but a full examination of kinetics was not performed due to limited amounts of sample.
At high total POPC, AmtB shifted the equilibrium to acquire more POPG in the AmtB nanodiscs. Conversely, at low POPC levels, AmtB shifted the equilibrium to enrich the AmtB nanodiscs in POPC.
After establishing that AmtB remodels the local membrane environment, Xt versus Xp−Xt was fit to a sigmoidal curve and the x-intercept where Xp−Xt=0 was determined. At this mole fraction, which is termed the isolipid point, the lipid composition of the membrane protein nanodiscs is the same as the empty nanodiscs. The composition of the annular lipids matches the bulk lipid bilayer at the isolipid point.
The 50% POPC AmtB nanodiscs were mixed with empty nanodiscs assembled with the polyhistidine tagged MSP1E3D1 in POPC/(POPC+POPG) mole fractions of 0, 20, 40, 60, 80, or 100% at a 1:1 molar ratio and a final concentration of 2.3 μM AmtB nanodiscs. To extend the titration to a lower total POPC mole fraction (Xt), the AmtB nanodiscs were mixed with 0% POPC empty nanodiscs at a 1:2.6 molar ratio while keeping the AmtB nanodiscs at 2.3 μM. The mixtures were incubated at room temperature (21-23° C.) for 2.8 days to allow the lipid exchange to reach equilibrium. […] Control experiments were also performed using 50% POPC untagged empty nanodiscs mixed with empty nanodiscs assembled with the polyhistidine-tagged MSP1E3D1 in POPC/(POPC+POPG) mole fractions of 0, 20, 40, 60, 80, or 100% at a 1:1 molar ratio and a final concentration of 2.3 μM MSP as well as at a 1:2.6 molar ratio with 0% nanodiscs.
After exchanging, tagged empty nanodiscs and untagged (either empty or AmtB) nanodiscs were separated by IMAC using a Ni-NTA His SpinTrap (GE Healthcare). Because small exchange volumes of roughly 16 μL were used, around ⅓ of the 100 μL column volume was removed for a final column volume around 66 μL. The SpinTrap was prepared by three washes of 450 μL loading buffer (20 mM imidazole, 0.2 M ammonium acetate, pH 7.6) to equilibrate the column. Prior to addition to the beads, the imidazole concentration of the exchange mixture was adjusted to 20 mM by adding a 1 M imidazole solution (pH 7.6 adjusted with acetic acid) to limit the non-specific binding of the untagged nanodiscs. Then, the exchange reaction mixture was added to the IMAC beads and allowed to incubate for 1-2 minutes at 4° C. The flow-through was removed by centrifugation at 100 g for 45 seconds, and extra loading buffer of 20 μL was added to the column and washed under the same centrifugation procedures. […] Thus, the first wash was collected for MS analysis to maximize the lipid concentration. Around 20 μL was typically recovered. After separation, the His SpinTrap was cleaned with three washes of 450 μL elution buffer (400 mM imidazole, 0.2 M ammonium acetate, pH 7.8). […]

T1 sequence (P69681 23-428): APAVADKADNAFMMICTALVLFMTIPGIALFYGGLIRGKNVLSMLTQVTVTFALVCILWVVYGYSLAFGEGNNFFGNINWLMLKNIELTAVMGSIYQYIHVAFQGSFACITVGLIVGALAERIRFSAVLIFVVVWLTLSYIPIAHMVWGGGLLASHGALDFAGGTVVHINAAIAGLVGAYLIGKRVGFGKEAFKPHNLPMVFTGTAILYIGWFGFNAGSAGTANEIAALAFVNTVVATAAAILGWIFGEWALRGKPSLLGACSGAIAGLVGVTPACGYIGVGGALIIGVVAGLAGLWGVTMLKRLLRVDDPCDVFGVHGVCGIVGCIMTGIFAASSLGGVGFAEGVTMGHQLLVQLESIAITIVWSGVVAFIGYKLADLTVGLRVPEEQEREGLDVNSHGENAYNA

Compound | optimal ratio for AmtB POPC/POPG (isolipid point) | lipid preference of AmtB (in words) | isolipid point (mole fraction where Xp−Xt=0) [%]
CCCCCCCC/C=C\CCCCCCCC(=O)O[C@H](COC(=O)CCCCCCCCCCCCCCC)COP(=O)(O)OCC(O)CO (mixture of isomers) [POPG, 1-palmitoyl-2-oleoyl-sn-glycero-3-phospho-(1′-racglycerol)] | 76 | clear preference for POPG | 76±2
CCCCCCCC/C=C\CCCCCCCC(=O)O[C@H](COC(=O)CCCCCCCCCCCCCCC)COP(=O)([O-])OCC[N+](C)(C)C [POPC, 1-palmitoyl-2-oleoyl-sn-glycero-3-phosphocholine] | 24 | some affinity for POPC | 24±2
